Read-outs that look alike come from different tables or passages of the source.
Key:
5-HT3 (h) = molecular target: T1, 5-HT3 (h) (Homo sapiens, UniProt P46098); assay: biochemical
T1 sequence (P46098 24-478): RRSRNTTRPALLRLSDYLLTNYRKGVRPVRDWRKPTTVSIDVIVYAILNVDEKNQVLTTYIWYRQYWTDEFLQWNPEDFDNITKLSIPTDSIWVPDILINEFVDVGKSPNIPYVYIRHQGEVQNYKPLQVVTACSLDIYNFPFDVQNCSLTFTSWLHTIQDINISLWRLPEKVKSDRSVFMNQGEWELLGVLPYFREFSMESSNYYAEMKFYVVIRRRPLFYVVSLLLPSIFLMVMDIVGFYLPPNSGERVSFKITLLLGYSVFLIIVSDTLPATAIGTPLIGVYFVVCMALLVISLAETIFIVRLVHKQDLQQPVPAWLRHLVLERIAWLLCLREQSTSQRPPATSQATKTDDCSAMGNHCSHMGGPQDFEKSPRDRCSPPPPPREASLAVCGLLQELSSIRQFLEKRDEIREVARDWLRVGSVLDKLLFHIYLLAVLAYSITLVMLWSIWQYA

MAO-A = molecular target: T2, MAO-A (Rattus norvegicus, UniProt P21396); format: binding; details: 1 h, 1.0E-06 M
T2 construct: tissue Cerep; host or cells: rat cerebral cortex
T2 sequence (P21396 1-526): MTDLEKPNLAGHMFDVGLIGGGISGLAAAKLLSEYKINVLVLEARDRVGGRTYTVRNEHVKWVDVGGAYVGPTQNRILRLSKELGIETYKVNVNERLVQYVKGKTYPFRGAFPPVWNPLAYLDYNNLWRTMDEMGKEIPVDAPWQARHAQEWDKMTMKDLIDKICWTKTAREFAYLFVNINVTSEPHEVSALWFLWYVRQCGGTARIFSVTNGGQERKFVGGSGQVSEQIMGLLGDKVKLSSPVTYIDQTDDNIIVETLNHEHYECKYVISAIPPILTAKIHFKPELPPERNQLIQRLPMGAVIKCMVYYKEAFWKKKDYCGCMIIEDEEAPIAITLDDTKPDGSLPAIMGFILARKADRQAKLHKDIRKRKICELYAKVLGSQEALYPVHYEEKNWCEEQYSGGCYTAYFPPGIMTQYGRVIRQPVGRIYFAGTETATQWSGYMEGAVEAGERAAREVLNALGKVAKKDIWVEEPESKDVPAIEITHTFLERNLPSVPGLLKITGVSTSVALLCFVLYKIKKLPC

MT3 (ML2) = molecular target: T3, MT3 (ML2) (Mesocricetus auratus, UniProt A0ABM2YAB8); format: binding, hamster
T3 construct: tissue Cerep; host or cells: hamster brain
T3 sequence (A0ABM2YAB8 1-231): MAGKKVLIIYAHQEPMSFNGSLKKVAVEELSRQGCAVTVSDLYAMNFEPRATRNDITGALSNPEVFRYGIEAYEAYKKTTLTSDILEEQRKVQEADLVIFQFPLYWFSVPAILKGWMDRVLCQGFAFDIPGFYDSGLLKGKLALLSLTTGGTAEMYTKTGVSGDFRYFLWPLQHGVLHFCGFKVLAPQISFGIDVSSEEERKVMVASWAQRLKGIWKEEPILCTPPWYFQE

D1 (h) = molecular target: T4, D1 (h) (Homo sapiens, UniProt P21728); format: binding
T4 construct: host or cells: CHO cells
T4 sequence (P21728 whole entry): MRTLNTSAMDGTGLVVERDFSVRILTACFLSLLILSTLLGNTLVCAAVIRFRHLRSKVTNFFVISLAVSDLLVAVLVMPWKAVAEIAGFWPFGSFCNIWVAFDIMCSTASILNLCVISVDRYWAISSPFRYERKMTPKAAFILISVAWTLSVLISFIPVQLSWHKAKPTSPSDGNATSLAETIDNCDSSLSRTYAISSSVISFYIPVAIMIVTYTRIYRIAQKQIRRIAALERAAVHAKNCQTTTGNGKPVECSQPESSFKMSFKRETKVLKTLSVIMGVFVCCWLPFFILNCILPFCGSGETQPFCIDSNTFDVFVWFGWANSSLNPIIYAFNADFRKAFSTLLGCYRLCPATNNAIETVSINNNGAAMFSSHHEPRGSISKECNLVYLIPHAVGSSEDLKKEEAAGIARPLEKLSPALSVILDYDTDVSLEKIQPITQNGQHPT

5-HT transporter (h) = molecular target: T5, 5-HT transporter (h) (Homo sapiens, UniProt P31645); format: binding; details: 1 h
T5 construct: host or cells: CHO cells
T5 sequence (P31645 whole entry): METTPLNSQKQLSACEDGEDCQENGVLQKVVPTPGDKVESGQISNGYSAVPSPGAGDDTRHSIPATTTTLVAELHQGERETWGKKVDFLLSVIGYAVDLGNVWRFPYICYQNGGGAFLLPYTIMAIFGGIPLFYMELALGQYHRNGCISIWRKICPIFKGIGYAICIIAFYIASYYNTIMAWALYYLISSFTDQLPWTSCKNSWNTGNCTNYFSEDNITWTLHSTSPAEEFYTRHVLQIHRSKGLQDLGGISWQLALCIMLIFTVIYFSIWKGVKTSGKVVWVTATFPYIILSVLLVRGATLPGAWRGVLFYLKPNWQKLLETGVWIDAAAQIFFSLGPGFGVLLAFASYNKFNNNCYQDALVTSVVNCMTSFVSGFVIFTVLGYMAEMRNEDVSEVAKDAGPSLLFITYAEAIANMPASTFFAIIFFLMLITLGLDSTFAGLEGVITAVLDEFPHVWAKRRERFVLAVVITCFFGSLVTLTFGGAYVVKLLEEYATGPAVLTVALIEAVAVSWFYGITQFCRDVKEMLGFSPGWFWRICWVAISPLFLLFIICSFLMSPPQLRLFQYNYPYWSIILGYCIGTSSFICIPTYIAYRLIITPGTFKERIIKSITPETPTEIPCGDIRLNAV

D2S (h) = D2S (h) (Homo sapiens, UniProt P14416); format: binding; parameters: host or cells: HEK-293 cells; details: 1.0E-06 M
Chain of D2S (h) (P14416 1-414 isoform P14416-2): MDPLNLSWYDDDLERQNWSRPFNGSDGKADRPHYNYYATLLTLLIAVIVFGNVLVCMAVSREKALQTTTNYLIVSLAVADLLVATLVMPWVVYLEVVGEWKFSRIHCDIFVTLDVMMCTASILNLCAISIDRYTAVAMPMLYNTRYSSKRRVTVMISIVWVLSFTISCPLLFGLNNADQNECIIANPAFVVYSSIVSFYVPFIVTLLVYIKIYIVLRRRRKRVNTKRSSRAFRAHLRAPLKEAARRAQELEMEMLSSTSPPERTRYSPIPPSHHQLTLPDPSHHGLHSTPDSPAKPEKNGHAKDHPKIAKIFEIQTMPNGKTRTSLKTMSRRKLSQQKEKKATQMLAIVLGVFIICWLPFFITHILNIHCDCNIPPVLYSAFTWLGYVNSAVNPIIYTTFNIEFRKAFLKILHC

dopamine transporter (h) = molecular target: T6, dopamine transporter (h) (Homo sapiens, UniProt Q01959); format: binding; details: 1.0E-06 M
T6 construct: host or cells: CHO cells
T6 sequence (Q01959 whole entry): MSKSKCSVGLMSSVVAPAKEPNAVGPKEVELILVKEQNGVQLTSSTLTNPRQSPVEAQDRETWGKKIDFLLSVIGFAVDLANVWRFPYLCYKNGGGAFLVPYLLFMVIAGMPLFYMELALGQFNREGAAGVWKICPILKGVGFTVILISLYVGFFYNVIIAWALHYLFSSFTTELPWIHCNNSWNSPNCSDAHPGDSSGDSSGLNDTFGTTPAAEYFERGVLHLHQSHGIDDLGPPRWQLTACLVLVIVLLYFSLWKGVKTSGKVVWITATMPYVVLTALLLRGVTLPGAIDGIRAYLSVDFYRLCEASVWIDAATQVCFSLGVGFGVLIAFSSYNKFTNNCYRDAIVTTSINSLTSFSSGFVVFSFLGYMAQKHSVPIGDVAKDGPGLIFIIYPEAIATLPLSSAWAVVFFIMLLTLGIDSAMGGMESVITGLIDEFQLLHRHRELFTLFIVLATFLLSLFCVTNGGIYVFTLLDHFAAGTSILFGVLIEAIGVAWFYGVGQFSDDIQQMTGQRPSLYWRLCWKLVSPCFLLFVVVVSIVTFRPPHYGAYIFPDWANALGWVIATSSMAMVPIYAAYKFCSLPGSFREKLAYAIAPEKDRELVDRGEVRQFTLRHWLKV

δ2 (DOP) (h) = molecular target: T7, δ2 (DOP) (h) (Homo sapiens, UniProt P41143); format: binding; details: 1.0E-06 M
T7 construct: host or cells: CHO cells
T7 sequence (P41143 whole entry): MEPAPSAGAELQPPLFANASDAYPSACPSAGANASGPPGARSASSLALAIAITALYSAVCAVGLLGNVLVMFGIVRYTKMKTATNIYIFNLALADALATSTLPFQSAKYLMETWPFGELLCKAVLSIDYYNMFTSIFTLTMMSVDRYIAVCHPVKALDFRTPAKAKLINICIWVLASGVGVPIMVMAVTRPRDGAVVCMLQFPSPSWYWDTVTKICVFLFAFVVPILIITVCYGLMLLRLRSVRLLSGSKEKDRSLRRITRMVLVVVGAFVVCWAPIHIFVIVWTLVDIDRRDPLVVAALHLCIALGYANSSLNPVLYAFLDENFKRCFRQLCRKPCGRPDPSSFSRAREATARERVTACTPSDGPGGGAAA

H1 (h) = molecular target: T8, H1 (h) (Homo sapiens, UniProt P35367); format: binding; details: 1.0E-06 M
T8 construct: host or cells: HEK-293 cells
T8 sequence (P35367 whole entry): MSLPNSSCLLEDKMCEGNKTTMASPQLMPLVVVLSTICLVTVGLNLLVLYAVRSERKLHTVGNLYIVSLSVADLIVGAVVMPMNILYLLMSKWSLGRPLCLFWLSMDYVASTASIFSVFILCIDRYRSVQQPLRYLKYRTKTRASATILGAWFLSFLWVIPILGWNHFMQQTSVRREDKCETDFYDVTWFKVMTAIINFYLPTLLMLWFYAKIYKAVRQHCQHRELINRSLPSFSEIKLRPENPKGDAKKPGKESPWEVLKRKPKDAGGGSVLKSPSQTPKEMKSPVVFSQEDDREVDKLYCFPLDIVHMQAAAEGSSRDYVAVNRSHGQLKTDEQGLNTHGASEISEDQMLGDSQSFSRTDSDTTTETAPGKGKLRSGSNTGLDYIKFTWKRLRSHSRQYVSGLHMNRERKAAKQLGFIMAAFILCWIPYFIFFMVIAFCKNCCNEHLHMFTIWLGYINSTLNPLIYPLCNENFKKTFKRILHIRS

α2B (h) = molecular target: T9, α2B (h) (Homo sapiens, UniProt P18089); assay: biochemical; format: binding; details: 1.0E-06 M
T9 construct: host or cells: CHO cells
T9 sequence (P18089 1-450): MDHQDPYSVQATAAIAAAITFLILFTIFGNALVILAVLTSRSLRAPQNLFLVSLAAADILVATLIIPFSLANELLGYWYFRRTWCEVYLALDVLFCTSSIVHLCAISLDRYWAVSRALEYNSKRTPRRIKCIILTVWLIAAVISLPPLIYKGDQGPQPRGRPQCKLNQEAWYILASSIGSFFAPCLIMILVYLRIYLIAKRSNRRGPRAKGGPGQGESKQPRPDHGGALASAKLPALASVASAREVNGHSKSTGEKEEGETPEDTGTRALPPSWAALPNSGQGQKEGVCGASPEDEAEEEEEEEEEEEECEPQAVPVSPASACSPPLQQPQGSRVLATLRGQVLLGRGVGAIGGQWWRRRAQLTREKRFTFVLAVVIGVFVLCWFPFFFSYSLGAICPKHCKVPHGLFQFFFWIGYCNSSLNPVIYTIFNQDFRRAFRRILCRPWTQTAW

| SMILES | inhibition at 1 µM (5-HT3 (h); read-out: % Inhibition 1st) | inhibition at 1 µM (5-HT3 (h); read-out: % Inhibition 2nd) | inhibition at 1 µM (5-HT3 (h); read-out: % Inhibition Mean) | inhibition at 1 µM (MAO-A; read-out: % Inhibition 1st) | inhibition at 1 µM (MAO-A; read-out: % Inhibition 2nd) | inhibition at 1 µM (MAO-A; read-out: % Inhibition Mean) | inhibition at 1 µM (MT3 (ML2); read-out: % Inhibition 1st) | inhibition at 1 µM (MT3 (ML2); read-out: % Inhibition 2nd) | inhibition at 1 µM (MT3 (ML2); read-out: % Inhibition Mean) | inhibition at 1 µM (D1 (h); read-out: % Inhibition 1st) | inhibition at 1 µM (D1 (h); read-out: % Inhibition 2nd) | inhibition at 1 µM (D1 (h); read-out: % Inhibition Mean) | inhibition at 1 µM (5-HT transporter (h); read-out: % Inhibition 1st) | inhibition at 1 µM (5-HT transporter (h); read-out: % Inhibition 2nd) | inhibition at 1 µM (5-HT transporter (h); read-out: % Inhibition Mean) | inhibition at 1 µM (D2S (h); read-out: % Inhibition 1st) | inhibition at 1 µM (D2S (h); read-out: % Inhibition 2nd) | inhibition at 1 µM (D2S (h); read-out: % Inhibition Mean) | inhibition at 1 µM (dopamine transporter (h); read-out: % Inhibition 1st) | inhibition at 1 µM (dopamine transporter (h); read-out: % Inhibition 2nd) | other results |
| --- | --- | --- | --- | --- | --- | --- | --- | --- | --- | --- | --- | --- | --- | --- | --- | --- | --- | --- | --- | --- | --- |
| Cn1c(=O)n(CCCO)c(=O)c2c1nc(Oc1cccc(Cl)c1)n2Cc1ccc(Cl)cc1 [HC-070] | 4.7% | 2.6% | 3.7% | 12.6% | 13.1% | 12.8% | 46.1% | 49.5% | 47.8% | 3% | -4.8% | -0.9% | -0.3% | 18.4% | 9.1% | -3% | 3.4% | 0.2% | 8.9% | 8.6% | inhibition at 1 µM (dopamine transporter (h); read-out: % Inhibition Mean): 8.8%; inhibition at 1 µM (δ2 (DOP) (h); read-out: % Inhibition 1st): 6.8%; inhibition at 1 µM (δ2 (DOP) (h); read-out: % Inhibition 2nd): 5.9%; inhibition at 1 µM (δ2 (DOP) (h); read-out: % Inhibition Mean): 6.3%; inhibition at 1 µM (H1 (h); read-out: % Inhibition 1st): -15.6%; inhibition at 1 µM (H1 (h); read-out: % Inhibition 2nd): -11.4%; inhibition at 1 µM (H1 (h); read-out: % Inhibition Mean): -13.5%; inhibition at 1 µM (α2B (h); read-out: % Inhibition 1st): -22.3%; inhibition at 1 µM (α2B (h); read-out: % Inhibition 2nd): -1.2%; inhibition at 1 µM (α2B (h); read-out: % Inhibition Mean): -11.7% |
| Cn1c(=O)n(CCCO)c(=O)c2c1nc(Oc1cccc(OC(F)(F)F)c1)n2Cc1ccc(Cl)cc1 [HC-608] | -4.1% | 9.5% | 2.7% | -3.8% | 3.6% | -0.1% | -0.7% | 1.2% | 0.2% | 1.1% | 5% | 3.1% | -6.2% | 4.6% | -0.8% | 4.6% | 0.2% | 2.4% | 22.8% | 37.1% | inhibition at 1 µM (dopamine transporter (h); read-out: % Inhibition Mean): 29.9%; inhibition at 1 µM (δ2 (DOP) (h); read-out: % Inhibition 1st): -10.8%; inhibition at 1 µM (δ2 (DOP) (h); read-out: % Inhibition 2nd): 3.1%; inhibition at 1 µM (δ2 (DOP) (h); read-out: % Inhibition Mean): -3.9%; inhibition at 1 µM (H1 (h); read-out: % Inhibition 1st): -8.1%; inhibition at 1 µM (H1 (h); read-out: % Inhibition 2nd): -0.9%; inhibition at 1 µM (H1 (h); read-out: % Inhibition Mean): -4.5%; inhibition at 1 µM (α2B (h); read-out: % Inhibition 1st): -7.4%; inhibition at 1 µM (α2B (h); read-out: % Inhibition 2nd): -0.7%; inhibition at 1 µM (α2B (h); read-out: % Inhibition Mean): -4% |
